# Experimental data from patent US10227342B2 (ARIAD PHARMACEUTICALS, INC., priority 2014, dated 2019).
# Tests used:
# Assay type in all cases: cell-based
# [1] = biological target: human EGFR exon 20 insertion ASV (V769_D770insASV) (Homo sapiens (Human), UniProt P00533, INS769ASV); experiment: Ba/F3-EGFR-Exon20-ASV cell anti-proliferative assay (CellTiter 96 MTS, 72 h); conditions: Ba/F3-EGFR-Exon20-ASV cells;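 note: Ba/F3 cells bearing the EGFR exon 20 ASV insertion, a line able to proliferate without IL-3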
# human EGFR exon 20 insertion ASV (V769_D770insASV), sequence (P00533 other isoform, or with tags, fused parts or gaps ins ASV behind 769): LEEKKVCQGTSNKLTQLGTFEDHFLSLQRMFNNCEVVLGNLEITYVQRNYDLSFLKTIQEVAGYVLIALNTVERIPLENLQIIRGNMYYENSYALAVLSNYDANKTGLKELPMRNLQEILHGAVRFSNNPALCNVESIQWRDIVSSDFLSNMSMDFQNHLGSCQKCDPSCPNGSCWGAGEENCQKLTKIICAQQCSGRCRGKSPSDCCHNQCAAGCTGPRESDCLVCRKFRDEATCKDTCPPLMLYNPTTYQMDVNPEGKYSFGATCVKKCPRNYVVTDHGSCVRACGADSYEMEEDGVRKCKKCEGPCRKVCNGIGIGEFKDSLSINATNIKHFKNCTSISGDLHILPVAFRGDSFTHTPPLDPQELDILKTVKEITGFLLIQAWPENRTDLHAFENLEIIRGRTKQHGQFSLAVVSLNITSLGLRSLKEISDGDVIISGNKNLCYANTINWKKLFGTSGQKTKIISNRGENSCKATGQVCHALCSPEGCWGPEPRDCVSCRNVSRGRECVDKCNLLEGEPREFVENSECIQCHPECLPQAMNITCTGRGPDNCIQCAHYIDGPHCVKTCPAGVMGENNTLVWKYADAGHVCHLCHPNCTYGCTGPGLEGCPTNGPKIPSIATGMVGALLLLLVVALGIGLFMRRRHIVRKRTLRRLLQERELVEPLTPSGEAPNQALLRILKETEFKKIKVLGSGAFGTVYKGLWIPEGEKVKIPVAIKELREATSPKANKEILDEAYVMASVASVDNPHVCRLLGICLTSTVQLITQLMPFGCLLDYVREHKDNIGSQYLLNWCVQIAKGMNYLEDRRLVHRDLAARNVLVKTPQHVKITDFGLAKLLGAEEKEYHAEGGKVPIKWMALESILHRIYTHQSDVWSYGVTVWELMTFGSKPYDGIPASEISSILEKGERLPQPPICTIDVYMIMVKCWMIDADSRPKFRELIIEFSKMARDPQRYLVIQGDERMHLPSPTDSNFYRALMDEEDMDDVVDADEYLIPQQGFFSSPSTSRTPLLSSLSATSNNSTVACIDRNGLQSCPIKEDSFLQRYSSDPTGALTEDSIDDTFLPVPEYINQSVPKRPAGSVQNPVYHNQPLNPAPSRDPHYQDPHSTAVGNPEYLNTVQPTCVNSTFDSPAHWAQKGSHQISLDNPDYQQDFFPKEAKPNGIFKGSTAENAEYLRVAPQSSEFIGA
# Procedure: Ba/F3 cells expressing EGFR exon 20 insertions (named Ba/F3-EGFR-Exon20-NPG or Ba/F3-EGFR-Exon20-ASV) can proliferate in the absence of IL-3. The anti-proliferative activity of compounds were determined as follows: BaF3-EGFR-Exon20 cells (NPG or ASV) seeded in 96 well plates (2500 cells/well) were treated with test compound (dissolved in DMSO) at a series of concentrations (4-fold dilution, top concentration: 10,000 nM). The plates were incubated for 72 h in a 37° C. incubator with 5% CO2, and the number of viable cells in each well were measured indirectly by CellTiter 96® Aqueous One Solution Cell Proliferation Assay (Promega) This assay is a colorimetric method for determining the number of viable cells through measurement of their metabolic activity by detection of enzymatic conversion of tetrazolium salts into blue formazan derivatives. Reagent (20 μL) was added into each well, and the plates were returned to the incubator for 2 h. The absorbance in each well was then measured at 490 nm using an Envision plate reader (Perkin Elmer).
# [2] = biological target: human EGFR E746-A750 deletion and T790M Mutation (DT) (Homo sapiens (Human), UniProt P00533, DEL746-750/T790M); experiment: Ba/F3-EGFR-Del/T790M cell anti-proliferative assay (CellTiter 96 MTS, 72 h); conditions: Ba/F3-EGFR-Del/T790M cells; for IC50: read-out: EGFR exon 19 deletion and T790M mutation IC50
# human EGFR E746-A750 deletion and T790M Mutation (DT), sequence (P00533 other isoform, or with tags, fused parts or gaps T790M/del E746-A750): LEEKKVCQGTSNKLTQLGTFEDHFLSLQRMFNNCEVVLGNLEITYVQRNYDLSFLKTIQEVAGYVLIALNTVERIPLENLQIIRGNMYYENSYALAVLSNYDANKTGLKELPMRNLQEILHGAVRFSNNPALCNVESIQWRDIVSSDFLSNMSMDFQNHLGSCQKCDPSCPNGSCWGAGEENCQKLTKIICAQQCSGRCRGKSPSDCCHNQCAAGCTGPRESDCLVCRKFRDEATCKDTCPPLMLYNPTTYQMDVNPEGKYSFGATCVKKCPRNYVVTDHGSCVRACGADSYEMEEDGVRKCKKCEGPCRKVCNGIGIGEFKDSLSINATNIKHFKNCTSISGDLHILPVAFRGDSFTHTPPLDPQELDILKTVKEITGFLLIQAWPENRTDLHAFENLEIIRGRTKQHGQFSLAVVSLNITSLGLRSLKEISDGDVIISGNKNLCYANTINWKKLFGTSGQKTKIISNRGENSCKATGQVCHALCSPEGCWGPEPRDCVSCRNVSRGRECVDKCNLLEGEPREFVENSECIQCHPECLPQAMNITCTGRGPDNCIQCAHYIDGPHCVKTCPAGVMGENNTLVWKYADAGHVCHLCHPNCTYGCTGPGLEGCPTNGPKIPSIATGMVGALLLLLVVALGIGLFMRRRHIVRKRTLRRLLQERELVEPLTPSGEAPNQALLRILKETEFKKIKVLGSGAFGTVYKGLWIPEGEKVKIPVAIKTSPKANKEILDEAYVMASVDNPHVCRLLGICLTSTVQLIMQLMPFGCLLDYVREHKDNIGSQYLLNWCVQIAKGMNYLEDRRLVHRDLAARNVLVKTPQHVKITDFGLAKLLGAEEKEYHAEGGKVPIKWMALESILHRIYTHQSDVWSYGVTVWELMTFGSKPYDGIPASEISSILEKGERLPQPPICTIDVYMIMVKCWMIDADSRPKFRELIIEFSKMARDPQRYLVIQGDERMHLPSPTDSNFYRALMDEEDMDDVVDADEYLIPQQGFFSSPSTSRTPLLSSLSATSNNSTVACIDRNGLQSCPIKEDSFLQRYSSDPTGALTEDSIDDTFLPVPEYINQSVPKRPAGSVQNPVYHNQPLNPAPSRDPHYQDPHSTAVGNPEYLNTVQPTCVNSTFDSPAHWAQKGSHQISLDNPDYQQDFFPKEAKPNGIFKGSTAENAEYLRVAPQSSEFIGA
# Procedure: An expression vector, pLVX-IRES puro (Clontech) coding for human EGFR E746-A750 deletion and T790M Mutation, was transfected into HEK293 cells by the Trans-Lentiviral ORF Packaging System (Thermo Scientific), to produce virus encoding EGFR exon 19 deletion and T790M mutations. […] Ba/F3 cells expressing EGFR E746-A750 deletion and T790M Mutation (named Ba/F3-EGFR-Del/T790M) can proliferate in the absence of IL-3. The anti-proliferative activity of compounds was determined as follows: BaF3-EGFR-Del/T790M cells seeded in 96 well plates (2500 cells/well) were treated with test compound (dissolved in DMSO) at a series of concentrations (4-fold dilution, top concentration: 10,000 nM). The plates were incubated for 72 h in a 37° C. incubator with 5% CO2, and the number of viable cells in each well were measured indirectly by CellTiter 96® Aqueous One Solution Cell Proliferation Assay (Promega; this assay is a colorimetric method for determining the number of viable cells through measurement of their metabolic activity by detection of enzymatic conversion of tetrazolium salts into blue formazan derivatives). Reagent (20 μL) was added into each well, and the plates were returned to the incubator for 2 h. The absorbance in each well was then measured at 490 nm using an Envision plate reader (Perkin Elmer).
# [3] = biological target: Her2 exon 20 YVMA insertion (A775_G776ins YVMA) (Homo sapiens (Human), UniProt P04626, INS775YVMA); experiment: Ba/F3-Her2 Exon20 YVMA cell anti-proliferative assay (CellTiter 96 MTS, 72 h); conditions: Ba/F3-Her2 Exon20 YVMA cells
# Her2 exon 20 YVMA insertion (A775_G776ins YVMA), sequence (P04626 other isoform, or with tags, fused parts or gaps ins YVMA behind 775): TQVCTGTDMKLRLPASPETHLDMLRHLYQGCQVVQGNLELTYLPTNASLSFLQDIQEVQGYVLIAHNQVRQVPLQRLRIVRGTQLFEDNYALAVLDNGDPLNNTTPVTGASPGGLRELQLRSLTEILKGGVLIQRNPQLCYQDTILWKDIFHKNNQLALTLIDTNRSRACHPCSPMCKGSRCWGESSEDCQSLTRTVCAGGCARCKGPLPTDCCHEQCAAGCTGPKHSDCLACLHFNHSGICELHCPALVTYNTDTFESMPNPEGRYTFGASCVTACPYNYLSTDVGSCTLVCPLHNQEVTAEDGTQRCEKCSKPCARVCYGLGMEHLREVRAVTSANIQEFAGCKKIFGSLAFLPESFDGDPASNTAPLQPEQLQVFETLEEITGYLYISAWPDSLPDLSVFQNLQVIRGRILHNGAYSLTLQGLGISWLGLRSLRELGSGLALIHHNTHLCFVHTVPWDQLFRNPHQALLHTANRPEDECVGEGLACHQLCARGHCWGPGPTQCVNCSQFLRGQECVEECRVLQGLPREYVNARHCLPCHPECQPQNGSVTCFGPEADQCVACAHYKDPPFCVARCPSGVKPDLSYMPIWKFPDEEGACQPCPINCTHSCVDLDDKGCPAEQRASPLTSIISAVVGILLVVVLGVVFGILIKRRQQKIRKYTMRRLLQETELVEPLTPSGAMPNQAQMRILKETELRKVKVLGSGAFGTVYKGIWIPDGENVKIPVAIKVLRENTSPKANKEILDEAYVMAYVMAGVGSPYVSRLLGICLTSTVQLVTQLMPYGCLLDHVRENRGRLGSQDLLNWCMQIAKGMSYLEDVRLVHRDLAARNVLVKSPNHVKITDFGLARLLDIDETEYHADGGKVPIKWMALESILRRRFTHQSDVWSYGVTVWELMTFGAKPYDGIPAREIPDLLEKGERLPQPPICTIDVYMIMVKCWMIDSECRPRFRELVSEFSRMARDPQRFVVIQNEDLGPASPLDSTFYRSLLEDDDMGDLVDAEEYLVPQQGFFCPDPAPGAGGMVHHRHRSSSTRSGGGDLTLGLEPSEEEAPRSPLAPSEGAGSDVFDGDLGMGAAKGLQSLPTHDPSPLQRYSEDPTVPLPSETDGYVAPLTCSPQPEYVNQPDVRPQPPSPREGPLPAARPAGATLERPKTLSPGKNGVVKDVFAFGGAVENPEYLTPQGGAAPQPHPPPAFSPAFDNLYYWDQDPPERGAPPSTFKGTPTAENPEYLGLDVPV
# Source text: Ba/F3 cells expressing Her2 Exon20 YVMA insertions (named Ba/F3-Her2 Exon20 YVMA) can proliferate in the absence of IL-3.
# [4] = biological target: human EGFR exon 20 insertion NPG (H773_V774insNPG) (Homo sapiens, UniProt P00533, INS773NPG, cells depend on it); experiment: Ba/F3-EGFR-Exon20-NPG cell anti-proliferative assay (CellTiter 96 MTS, 72 h); conditions: read-out: EGFR exon 20 NPG insertion IC50
# human EGFR exon 20 insertion NPG (H773_V774insNPG), sequence (P00533 with tags, fused parts or gaps INS773NPG limits assumed): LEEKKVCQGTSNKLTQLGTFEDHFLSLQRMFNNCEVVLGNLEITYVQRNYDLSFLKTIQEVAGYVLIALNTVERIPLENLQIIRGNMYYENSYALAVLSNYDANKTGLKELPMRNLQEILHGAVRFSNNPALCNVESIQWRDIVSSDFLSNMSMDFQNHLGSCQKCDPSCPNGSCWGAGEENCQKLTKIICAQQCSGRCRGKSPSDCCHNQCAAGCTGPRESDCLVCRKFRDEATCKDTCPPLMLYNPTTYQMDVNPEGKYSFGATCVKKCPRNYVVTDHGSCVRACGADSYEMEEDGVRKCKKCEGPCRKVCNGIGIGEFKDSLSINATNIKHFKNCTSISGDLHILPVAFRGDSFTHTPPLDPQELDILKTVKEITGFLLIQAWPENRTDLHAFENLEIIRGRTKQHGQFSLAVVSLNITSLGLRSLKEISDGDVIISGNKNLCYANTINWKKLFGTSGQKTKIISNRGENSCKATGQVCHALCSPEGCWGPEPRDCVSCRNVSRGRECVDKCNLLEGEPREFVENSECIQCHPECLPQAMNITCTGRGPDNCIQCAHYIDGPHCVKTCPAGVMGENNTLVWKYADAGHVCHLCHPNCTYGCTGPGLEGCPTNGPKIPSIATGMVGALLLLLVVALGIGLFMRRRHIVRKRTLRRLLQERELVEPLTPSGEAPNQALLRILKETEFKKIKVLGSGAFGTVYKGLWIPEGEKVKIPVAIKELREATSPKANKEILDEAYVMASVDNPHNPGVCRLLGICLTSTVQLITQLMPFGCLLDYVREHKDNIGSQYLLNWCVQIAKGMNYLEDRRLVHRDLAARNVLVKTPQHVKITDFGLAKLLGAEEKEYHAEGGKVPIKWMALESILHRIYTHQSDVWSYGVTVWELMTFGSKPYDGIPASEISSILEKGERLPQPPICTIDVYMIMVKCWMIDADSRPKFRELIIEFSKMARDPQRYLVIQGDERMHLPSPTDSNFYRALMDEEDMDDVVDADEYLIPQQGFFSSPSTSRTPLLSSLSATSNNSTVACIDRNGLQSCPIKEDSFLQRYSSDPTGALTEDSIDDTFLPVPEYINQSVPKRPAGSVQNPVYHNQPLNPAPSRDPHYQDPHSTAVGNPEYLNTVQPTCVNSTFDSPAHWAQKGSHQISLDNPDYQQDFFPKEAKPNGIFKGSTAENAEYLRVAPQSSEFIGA
Compound,IC50 [1],IC50 [2],IC50 [3],IC50 [4],EGFR exon 19 deletion and T790M mutation IC50 [2]
"C=CC(=O)Nc1cc(Nc2ncc(C(=O)OC(C)C)c(-n3ccc4ccccc43)n2)c(OC)cc1N(C)CCN(C)C [Example 15, isopropyl 2-((5-acrylamido-4-((2-(dimethylamino)ethyl)(methyl)amino)-2-methoxyphenyl)amino)-4-(1H-indol-1-yl)pyrimidine-5-carboxylate]",< 100 nM,< 100 nM,< 100 nM,< 100 nM,
"C=CC(=O)Nc1cc(Nc2ncc(C(=O)OC)c(-c3cn(C)c4ccccc34)n2)c(OC)cc1N(C)CC1CCCN1C (stereo not shown) [Example 16, methyl 2-((5-acrylamido-2-methoxy-4-(methyl((1-methylpyrrolidin-2-yl)methyl)amino)phenyl)amino)-4-(1-methyl-1H-indol-3-yl)pyrimidine-5-carboxylate]",< 100 nM,< 100 nM,100 to 500 nM,< 100 nM,
"C=CC(=O)Nc1ccc(OC)c(Nc2ncc(Cl)c(-c3cn(C)c4cc(OCCN5CCN(C)CC5)ccc34)n2)c1 [Example 18, N-(3-((5-chloro-4-(1-methyl-6-(2-(4-methylpiperazin-1-yl)ethoxy)-1H-indol-3-yl)pyrimidin-2-yl)amino)-4-methoxyphenyl)acrylamide]",> 1000 nM,< 100 nM,> 1000 nM,100 to 500 nM,
"C=CC(=O)Nc1ccc(OC)c(Nc2ncc(C#N)c(-c3cn(C)c4cc(OCCCN(C)C)ccc34)n2)c1 [Example 19, N-(3-((5-cyano-4-(6-(3-(dimethylamino)propoxy)-1-methyl-1H-indol-3-yl)pyrimidin-2-yl)amino)-4-methoxyphenyl)acrylamide]",100 to 500 nM,< 100 nM,500 to 1000 nM,< 100 nM,
"C=CC(=O)Nc1ccc(OC)c(Nc2ncc(C#N)c(-c3cn(C)c4cc(OCCN5CCCC5)ccc34)n2)c1 [Example 20, N-(3-((5-cyano-4-(1-methyl-6-(2-(pyrrolidin-1-yl)ethoxy)-1H-indol-3-yl)pyrimidin-2-yl)amino)-4-methoxyphenyl)acrylamide]",100 to 500 nM,< 100 nM,500 to 1000 nM,< 100 nM,
"C=CC(=O)Nc1ccc(OC)c(Nc2ncc(C#N)c(-c3cn(C)c4cc(OCC5CCCN5C)ccc34)n2)c1 (stereo not shown) [Example 21, N-(3-((5-cyano-4-(1-methyl-6-((1-methylpyrrolidin-2-yl)methoxy)-1H-indol-3-yl)pyrimidin-2-yl)amino)-4-methoxyphenyl)acrylamide]",500 to 1000 nM,< 100 nM,500 to 1000 nM,< 100 nM,
"C=CC(=O)Nc1ccc(OC)c(Nc2ncc(Cl)c(-c3c[nH]c4cc(OCCN5CCCC5)ccc34)n2)c1 [Example 22, N-(3-((5-chloro-4-(6-(2-(pyrrolidin-1-yl)ethoxy)-1H-indol-3-yl)pyrimidin-2-yl)amino)-4-methoxyphenyl)acrylamide]",100 to 500 nM,< 100 nM,100 to 500 nM,< 100 nM,
"C=CC(=O)Nc1ccc(OC)c(Nc2ncc(C#N)c(-c3cn(C)c4cc(OCCC5CCCN5C)ccc34)n2)c1 (stereo not shown) [Example 23, N-(3-((5-cyano-4-(1-methyl-6-(2-(1-methylpyrrolidin-2-yl)ethoxy)-1H-indol-3-yl)pyrimidin-2-yl)amino)-4-methoxyphenyl)acrylamide]",100 to 500 nM,< 100 nM,500 to 1000 nM,< 100 nM,
"C=CC(=O)Nc1cc(Nc2ncc(C(=O)OCC(C)C)c(-c3cn(C)c4ccccc34)n2)c(OC)cc1N(C)CCN(C)C [Example 28, isobutyl 2-((5-acrylamido-4-((2-(dimethylamino)ethyl)(methyl)amino)-2-methoxyphenyl)amino)-4-(1-methyl-1H-indol-3-yl)pyrimidine-5-carboxylate]",< 100 nM,< 100 nM,100 to 500 nM,< 100 nM,
"C=CC(=O)Nc1cc(Nc2ncc(C(=O)OC(C)CC)c(-c3cn(C)c4ccccc34)n2)c(OC)cc1N(C)CCN(C)C (stereo not shown) [Example 29, sec-butyl 2-((5-acrylamido-4-((2-(dimethylamino)ethyl)(methyl)amino)-2-methoxyphenyl)amino)-4-(1-methyl-1H-indol-3-yl)pyrimidine-5-carboxylate]",< 100 nM,< 100 nM,< 100 nM,< 100 nM,
"C=CC(=O)Nc1cc(Nc2ncc(C(=O)OC(C)C)c(-c3cn(C)c4c(OC)cccc34)n2)c(OC)cc1N(C)CCN(C)C [Example 31, isopropyl 2-((5-acrylamido-4-((2-(dimethylamino)ethyl)(methyl)amino)-2-methoxyphenyl)amino)-4-(7-methoxy-1-methyl-1H-indol-3-yl)pyrimidine-5-carboxylate]",< 100 nM,< 100 nM,< 100 nM,< 100 nM,
"C=CC(=O)Nc1cc(Nc2ncc(C(=O)OC(C)C)c(-c3cnn4ccccc34)n2)c(OC)cc1N(C)CCN(C)C [Example 32, isopropyl 2-((5-acrylamido-4-((2-(dimethylamino)ethyl)(methyl)amino)-2-methoxyphenyl)amino)-4-(pyrazolo[1,5-a]pyridin-3-yl)pyrimidine-5-carboxylate]",< 100 nM,< 100 nM,< 100 nM,< 100 nM,
"C=CC(=O)Nc1cc(Nc2ncc(C(=O)O[C@@H]3CCOC3)c(-c3cn(C)c4ccccc34)n2)c(OC)cc1N(C)CCN(C)C [Example 37, (R)-tetrahydrofuran-3-yl 2-((5-acrylamido-4-((2-(dimethylamino)ethyl)-(methyl)amino)-2-methoxyphenyl)amino)-4-(1-methyl-1H-indol-3-yl)pyrimidine-5-carboxylate]",< 100 nM,< 100 nM,100 to 500 nM,< 100 nM,
"C=CC(=O)Nc1cc(Nc2ncc(C(=O)OCC#N)c(-c3cn(C)c4ccccc34)n2)c(OC)cc1N(C)CCN(C)C [Example 38, cyanomethyl 2-((5-acrylamido-4-((2-(dimethylamino)ethyl)(methyl)amino)-2-methoxyphenyl)amino)-4-(1-methyl-1H-indol-3-yl)pyrimidine-5-carboxylate]",< 100 nM,< 100 nM,< 100 nM,< 100 nM,
"C=CC(=O)Nc1cc(Nc2ncc(NC(=O)C(C)C)c(-c3cn(C)c4ccccc34)n2)c(OC)cc1N(C)CCN(C)C [Example 39, N-(2-((2-(dimethylamino)ethyl)-(methyl)amino)-5-((5-isobutyramido-4-(1-methyl-1H-indol-3-yl)pyrimidin-2-yl)amino)-4-methoxyphenyl)-acrylamide]",100 to 500 nM,> 1000 nM,> 1000 nM,< 100 nM,
"C=CC(=O)Nc1cc(Nc2ncc(N(C)C(=O)C(C)C)c(-c3cn(C)c4ccccc34)n2)c(OC)cc1N(C)CCN(C)C [Example 40, N-(2-((2-(dimethylamino)ethyl)-(methyl)-amino)-4-methoxy-5-((4-(1-methyl-1H-indol-3-yl)-5-(N-methylisobutyramido)-pyrimidin-2-yl)amino)phenyl)acrylamide]",100 to 500 nM,,> 1000 nM,100 to 500 nM,C (Group C compounds have an IC50 value for the indicated mutant between greater than about 500 to about 1 μM)
